From publication PMC7933930, “Development of a small molecule that corrects misfolding and increases secretion of Z α1‐antitrypsin” (EMBO Molecular Medicine, 2021)

Tests used:
Muscarinic M1 = target: T1, Muscarinic M1 (Homo sapiens, UniProt P11229); assay: Off‐target panel: Muscarinic M1; type: cell-based
T1 sequence (P11229 1-460): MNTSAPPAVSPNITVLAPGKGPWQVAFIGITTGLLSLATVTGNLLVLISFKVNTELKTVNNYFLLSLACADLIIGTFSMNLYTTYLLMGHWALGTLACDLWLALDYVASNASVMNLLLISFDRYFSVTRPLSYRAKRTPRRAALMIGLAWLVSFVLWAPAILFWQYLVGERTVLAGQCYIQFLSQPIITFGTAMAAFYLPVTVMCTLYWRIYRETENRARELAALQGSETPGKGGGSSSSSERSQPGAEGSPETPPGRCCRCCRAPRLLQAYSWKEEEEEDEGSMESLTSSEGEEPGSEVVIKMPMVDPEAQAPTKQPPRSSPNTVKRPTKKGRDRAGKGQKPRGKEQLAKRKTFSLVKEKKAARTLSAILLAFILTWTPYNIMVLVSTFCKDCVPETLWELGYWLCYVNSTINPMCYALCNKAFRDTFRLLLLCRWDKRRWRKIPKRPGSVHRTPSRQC
Experimental: (§1) GSK716 selectivity and PK properties were profiled in order to investigate the suitability of GSK716 for progression into in vivo studies and the potential for taking it forward as a clinical candidate for testing in humans. Since GSK716 results in loss of inhibitory activity of α1‐antitrypsin, the effect of the compound was assessed on other closely related serpins. […] Furthermore, there were no off‐target effects in a panel of assays considered predictive of known safety liabilities that precluded further development of GSK716 (Table EV1).

Adrenergic α1B = Adrenergic α1B (Homo sapiens, UniProt P35368); assay: Off‐target panel: Adrenergic α1B; type: cell-based
Adrenergic α1B, sequence (P35368 whole entry): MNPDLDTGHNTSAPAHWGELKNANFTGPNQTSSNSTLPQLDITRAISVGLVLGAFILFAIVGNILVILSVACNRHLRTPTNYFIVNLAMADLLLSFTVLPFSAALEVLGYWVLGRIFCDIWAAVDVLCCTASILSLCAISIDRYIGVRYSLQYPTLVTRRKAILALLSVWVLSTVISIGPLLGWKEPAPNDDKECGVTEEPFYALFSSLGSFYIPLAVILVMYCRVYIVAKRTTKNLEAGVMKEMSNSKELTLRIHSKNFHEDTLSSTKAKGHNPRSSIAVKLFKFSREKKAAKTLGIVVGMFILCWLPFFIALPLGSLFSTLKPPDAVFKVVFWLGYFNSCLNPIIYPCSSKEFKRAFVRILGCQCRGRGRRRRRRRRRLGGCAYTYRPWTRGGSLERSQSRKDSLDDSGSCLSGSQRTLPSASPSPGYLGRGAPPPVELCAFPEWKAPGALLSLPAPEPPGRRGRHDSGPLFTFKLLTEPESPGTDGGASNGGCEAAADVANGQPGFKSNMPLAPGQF
Experimental: as §1

human serum albumin = human serum albumin (Homo sapiens, UniProt P02768); type: in vitro ADME
human serum albumin, sequence (P02768 25-609): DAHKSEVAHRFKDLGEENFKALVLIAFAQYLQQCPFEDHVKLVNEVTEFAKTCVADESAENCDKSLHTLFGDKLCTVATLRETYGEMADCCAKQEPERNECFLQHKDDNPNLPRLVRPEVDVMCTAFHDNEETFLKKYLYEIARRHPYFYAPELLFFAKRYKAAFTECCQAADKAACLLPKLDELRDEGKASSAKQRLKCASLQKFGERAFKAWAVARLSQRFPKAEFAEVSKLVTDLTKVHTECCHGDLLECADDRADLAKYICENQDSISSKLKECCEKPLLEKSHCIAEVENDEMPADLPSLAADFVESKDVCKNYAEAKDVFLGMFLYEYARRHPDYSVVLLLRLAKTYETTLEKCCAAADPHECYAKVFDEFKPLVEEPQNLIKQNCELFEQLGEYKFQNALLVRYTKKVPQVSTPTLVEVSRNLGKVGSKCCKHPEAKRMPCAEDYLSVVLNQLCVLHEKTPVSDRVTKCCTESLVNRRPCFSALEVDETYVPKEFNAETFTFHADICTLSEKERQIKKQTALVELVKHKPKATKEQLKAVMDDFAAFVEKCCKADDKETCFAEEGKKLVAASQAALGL

NK1 (TACR1) = NK1 (TACR1) (Homo sapiens, UniProt P25103); assay: Off‐target panel: NK1 (TACR1); type: cell-based; conditions: Antagonist, read-out: Mean (PXC50)
NK1 (TACR1), sequence (P25103 whole entry, species assumed): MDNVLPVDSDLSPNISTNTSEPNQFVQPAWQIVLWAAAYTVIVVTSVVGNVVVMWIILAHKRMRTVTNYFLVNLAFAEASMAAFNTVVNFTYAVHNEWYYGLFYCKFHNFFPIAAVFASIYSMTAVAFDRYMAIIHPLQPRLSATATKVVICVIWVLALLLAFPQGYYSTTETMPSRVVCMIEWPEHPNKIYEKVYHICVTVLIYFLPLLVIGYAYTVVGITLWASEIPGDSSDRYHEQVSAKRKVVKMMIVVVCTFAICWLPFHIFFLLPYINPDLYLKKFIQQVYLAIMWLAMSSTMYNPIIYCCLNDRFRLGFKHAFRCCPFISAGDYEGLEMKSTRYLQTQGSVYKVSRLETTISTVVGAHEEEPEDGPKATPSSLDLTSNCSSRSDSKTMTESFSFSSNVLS
Experimental: as §1

Serotonin 5HT2C = target: T2, Serotonin 5HT2C (Homo sapiens, UniProt P28335); assay: Off‐target panel: Serotonin 5HT2C; type: cell-based
T2 sequence (P28335 33-458): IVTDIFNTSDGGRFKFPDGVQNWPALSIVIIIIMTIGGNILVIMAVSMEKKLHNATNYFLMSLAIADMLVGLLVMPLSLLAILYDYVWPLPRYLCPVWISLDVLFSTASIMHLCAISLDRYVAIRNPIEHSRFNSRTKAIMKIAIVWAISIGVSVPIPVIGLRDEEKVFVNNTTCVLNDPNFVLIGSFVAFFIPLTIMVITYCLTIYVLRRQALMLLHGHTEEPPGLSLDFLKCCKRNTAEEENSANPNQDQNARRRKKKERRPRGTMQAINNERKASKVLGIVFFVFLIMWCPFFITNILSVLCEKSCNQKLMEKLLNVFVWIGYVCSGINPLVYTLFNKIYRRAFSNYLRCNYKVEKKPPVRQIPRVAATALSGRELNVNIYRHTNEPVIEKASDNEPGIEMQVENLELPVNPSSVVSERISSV
Experimental: as §1

PDE4B = PDE4B (Homo sapiens, UniProt Q07343); assay: Off‐target panel: PDE4B; type: biochemical; conditions: Inhibition, read-out: Mean (PXC50)
PDE4B, sequence (Q07343 whole entry, species assumed): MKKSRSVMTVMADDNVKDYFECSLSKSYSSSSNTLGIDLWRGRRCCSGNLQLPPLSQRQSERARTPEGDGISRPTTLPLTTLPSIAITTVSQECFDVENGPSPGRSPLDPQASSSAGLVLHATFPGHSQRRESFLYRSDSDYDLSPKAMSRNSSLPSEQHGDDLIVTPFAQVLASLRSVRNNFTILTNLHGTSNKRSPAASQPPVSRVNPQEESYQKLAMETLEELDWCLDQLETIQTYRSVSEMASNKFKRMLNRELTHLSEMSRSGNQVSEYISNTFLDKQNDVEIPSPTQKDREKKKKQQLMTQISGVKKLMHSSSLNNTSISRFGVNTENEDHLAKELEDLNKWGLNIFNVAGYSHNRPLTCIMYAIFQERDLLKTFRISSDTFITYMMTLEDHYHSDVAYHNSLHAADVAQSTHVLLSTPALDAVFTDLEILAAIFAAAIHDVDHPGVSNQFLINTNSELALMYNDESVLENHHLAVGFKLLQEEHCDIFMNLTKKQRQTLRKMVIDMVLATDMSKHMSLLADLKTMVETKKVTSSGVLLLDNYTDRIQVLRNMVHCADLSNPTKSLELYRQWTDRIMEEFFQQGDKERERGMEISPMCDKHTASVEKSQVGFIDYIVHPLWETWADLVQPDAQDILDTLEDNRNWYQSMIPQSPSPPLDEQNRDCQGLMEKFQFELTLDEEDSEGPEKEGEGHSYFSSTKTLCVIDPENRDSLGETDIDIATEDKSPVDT
Experimental: as §1

Serotonin 5HT3 = target: T3, Serotonin 5HT3 (Homo sapiens, UniProt P46098); assay: Off‐target panel: Serotonin 5HT3; type: cell-based
T3 sequence (P46098 24-478): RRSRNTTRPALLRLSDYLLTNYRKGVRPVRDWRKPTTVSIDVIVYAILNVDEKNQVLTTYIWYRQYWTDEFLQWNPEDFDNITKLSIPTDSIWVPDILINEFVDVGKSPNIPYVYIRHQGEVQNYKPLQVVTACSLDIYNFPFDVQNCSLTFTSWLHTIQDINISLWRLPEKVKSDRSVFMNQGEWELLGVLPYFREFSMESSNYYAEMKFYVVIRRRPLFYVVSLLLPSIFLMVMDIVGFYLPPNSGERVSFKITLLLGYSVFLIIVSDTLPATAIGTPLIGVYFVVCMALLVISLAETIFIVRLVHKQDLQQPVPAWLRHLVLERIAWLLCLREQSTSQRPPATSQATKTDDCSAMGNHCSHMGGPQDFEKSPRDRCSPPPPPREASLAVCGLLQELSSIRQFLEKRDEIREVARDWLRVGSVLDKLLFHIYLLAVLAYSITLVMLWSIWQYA
Experimental: as §1

Work on `CCC[C@@H](NC(=O)c1cccc2c1CC(=O)N2)[C@@H](O)c1cccc(F)c1C` [GSK716] yielded an EC50 (Muscarinic M1) greater than 50.1 µM, an IC50 (Muscarinic M1) greater than 50.1 µM and an IC50 (Adrenergic α1B) greater than 25.1 µM. The “binding to human serum albumin” value (human serum albumin) was 84.2%, the IC50 (NK1 (TACR1)) was greater than 25.1 µM and the EC50 (Serotonin 5HT2C) was greater than 25.1 µM. The IC50 (Serotonin 5HT2C) was greater than 25.1 µM, the IC50 (PDE4B) was greater than 100 µM and the EC50 (Serotonin 5HT3) was greater than 50.1 µM. For the same compound, the IC50 (Serotonin 5HT3) was 31.6 µM.
